Laboratory results reported in patent US11827628B2, “Compositions and methods for inhibition of the JAK pathway” (Rigel Pharmaceuticals, Inc., priority 2005, dated 2023).
Where two headings read alike, the source gives them in different places. Each block holds one compound with its values, some of them ahead of it.

Columns and labels:
[1] = system: IL-4 stimulated expression of CD23 in human Ramos B cells (JAK-1 and JAK-3); assay: Assay for Ramos B-Cell Line Stimulated with IL-4 (CD23 upregulation, FACS); assay type: cell-based; details: read-out: IC50, Example 41
Method in brief: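 Human Ramos B cells in RPMI with 5% serum were pre-incubated with compound or DMSO for 1 h at 37 °C, then stimulated with IL-4 at a final 50 units/mL for 20-24 h. CD23 upregulation was measured by anti-CD23-PE staining and flow cytometry, and IC50 values were calculated.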

Primary human T-cells = assay: Primary Human T-Cell Proliferation Assay Stimulated with IL-2 (CellTiter-Glo); assay type: cell-based; details: read-out: IC50, Example 42
Method in brief: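 Peripheral blood T-cells pre-activated with anti-CD3/anti-CD28 and IL-2 were washed free of IL-2, then cultured with compound plus IL-2 for 72 hours at 37° C, duplicate wells. Viability read as ATP by CellTiter-Glo luminescence; IC50 reported.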

[2] = Homo sapiens, Ramos, Ramos B-cell line stimulated with IL-4, CD23 expression by FACS
[3] = Homo sapiens, T-cell, primary human T-cell proliferation stimulated with IL-2
[4] = Homo sapiens, Ramos, Ramos B cells stimulated with IL-4, CD23 expression by FACS
[5] = Homo sapiens, T-cell, primary human T-cells stimulated with IL-2, proliferation
[6] = Ramos B-cell line stimulated with IL-4, CD23 expression by FACS
[7] = primary human T-cell proliferation stimulated with IL-2
[8] = Ramos B cells stimulated with IL-4, CD23 expression by FACS
[9] = primary human T-cells stimulated with IL-2, proliferation

Compound: C=CC(=O)NCc1ccc(Nc2nc(Nc3cccc(S(N)(=O)=O)c3)ncc2F)cc1 [III-45, N4-(4-Acrylamidomethylphenyl)-N2-(3-aminosulfonylphenyl)-5-fluoro-2,4-pyrimidinediamine]
IC50 [1, 2]: 293 nM
IC50 (Primary human T-cells; [3]): 384 nM

Compound: Cc1ccc(Nc2ncc(F)c(Nc3ccc(CCC#N)c(C(F)(F)F)c3)n2)cc1S(N)(=O)=O [III-30, N4-(4-Cyanoethylene-3-trifluoromethylphenyl)-5-fluoro-N2-(4-methyl-3-aminosulfonylphenyl)-2,4-pyrimidinediamine]
IC50 [1, 6]: 64.5 nM
IC50 (Primary human T-cells; [7]): 319 nM

Compound: Cc1ccc(Nc2ncc(F)c(Nc3ccc(CNC(=O)C4CC4)cc3)n2)cc1S(N)(=O)=O [III-43, N2-(3-aminosulfonyl-4-methyl)phenyl-N4-(4-cyclopropylcarbonylaminomethyl)phenyl-5-fluoro-2,4-pyrimidinediamine]
IC50 [1, 6]: 270 nM
IC50 (Primary human T-cells; [7]): 898 nM

Compound: Cc1ccc(Nc2ncc(F)c(Nc3ccc(CCOC(=O)N(C)C)cc3)n2)cc1S(N)(=O)=O [III-56, N2-(3-Aminosulfonyl-4-methylphenyl)-N4-{4-[2-(dimethylaminocarbonyloxy)ethyl]phenyl}-5-fluoro-2,4-pyrimidinediamine]
IC50 [1, 2]: 196 nM
IC50 (Primary human T-cells; [3]): 499 nM

Compound: NS(=O)(=O)c1cccc(Nc2ncc(F)c(Nc3ccc(CNC(=O)C4CC4)cc3)n2)c1 [III-42, N2-(3-aminosulfonyl)phenyl-N4-(4-cyclopropylcarbonylaminomethyl)phenyl-5-fluoro-2,4-pyrimidinediamine]
IC50 [1, 6]: 294 nM
IC50 (Primary human T-cells; [7]): 641 nM

Compound: CNC(=O)COc1ccc(Nc2nc(Nc3ccc(S(N)(=O)=O)cc3)ncc2C)cc1F [Compound I-154, N2-(4-Aminosulfonylphenyl)-N4-(3-fluoro-4-methylaminocarbonylmethoxyphenyl)-5-methyl-2,4-pyrimidinediamine]
IC50 [1, 2]: 276 nM
IC50 (Primary human T-cells; [3]): 992 nM

Compound: CC1(C)Oc2cc(Nc3nc(Nc4ccc(Cl)c(S(N)(=O)=O)c4)ncc3F)cnc2N(CC#N)C1=O [Compound V-15, N2-(3-Aminosulfonyl-4-chlorophenyl)-N4-[2,2-dimethyl-3-oxo-4-cyanomethyl-5-pyrid[1,4]oxazin-7-yl]-5-fluoro-2,4-pyrimidinediamine]
IC50 [1, 8]: 173 nM
IC50 (Primary human T-cells; [9]): 9310 nM

Compound: CNC(=O)COc1ccc(Nc2nc(Nc3cccc(S(N)(=O)=O)c3)ncc2F)cc1Cl [Compound I-147, N2-(3-Aminosulfonylphenyl)-N4-(3-chloro-4-methylaminocarbonylmethoxyphenyl)-5-fluoro-2,4-pyrimidinediamine]
IC50 [1, 2]: 79.9 nM
IC50 (Primary human T-cells; [3]): 174 nM

Compound: CCC(=O)NS(=O)(=O)c1cc(Nc2ncc(F)c(Nc3ccc(OCC#N)cc3)n2)ccc1C [Compound I-30, N4-(4-Cyanomethyleneoxy)phenyl-5-fluoro-N2-(4-methyl-3-propionylaminosulfonyl)phenyl-2,4-pyrimidinediamine]
IC50 [1, 6]: 5430 nM
IC50 (Primary human T-cells; [7]): 3570 nM

Compound: NC(=O)NCc1ccc(Nc2nc(Nc3ccc(S(N)(=O)=O)cc3)ncc2F)cc1 [III-32, N4-(4-Aminocarbonylaminomethylphenyl)-N2-(4-aminosulfonylphenyl)-5-fluoro-2,4-pyrimidinediamine]
IC50 [1, 2]: 4400 nM
IC50 (Primary human T-cells; [3]): 3320 nM

Continued, in another order:

IC50 [1, 4]: 85.8 nM
Compound: NS(=O)(=O)c1cccc(Nc2ncc(F)c(Nc3cccc4cccnc34)n2)c1 [VII-78, N2-(3-Aminosulfonylphenyl)-5-fluoro-N4-(quinolin-8-yl)-2,4-pyrimidinediamine]
IC50 (Primary human T-cells; [5]): 682 nM

IC50 [1, 4]: 1660 nM
Compound: CN1CCN(C(=O)c2ccc(Nc3nc(Nc4cccc(S(N)(=O)=O)c4)ncc3F)cc2)CC1 [IX-28, N2-(3-Aminosulfonylphenyl)-5-fluoro-N4-[4-(4-methylpiperazin-1-ylcarbonyl)phenyl]-2,4-pyrimidinediamine]
IC50 (Primary human T-cells; [5]): 10100 nM

IC50 [1, 4]: 259 nM
Compound: Cc1cc(Nc2ncc(F)c(Nc3ccc(OC(F)(F)F)c(Cl)c3)n2)cc(S(N)(=O)=O)c1F [VI-16, N2-(3-Aminosulfonyl-4-fluoro-5-methylphenyl)-N4-(3-chloro-4-trifluoromethoxyphenyl)-5-fluoro-2,4-pyrimidinediamine]
IC50 (Primary human T-cells; [5]): 3910 nM

IC50 [1, 8]: 197 nM
Compound: CCCN(Cc1ccc(Nc2nc(Nc3cccc(S(N)(=O)=O)c3)ncc2F)cc1)C(N)=O [III-126, N2-(3-aminosulfonyl)phenyl-N4-[4-(N-carbamoyl-N-propyl)aminomethyl]phenyl-5-fluoro-2,4-pyrimidinediamine]
IC50 (Primary human T-cells; [9]): 470 nM

IC50 [1, 8]: 772 nM
Compound: CC1(C)Oc2ccc(Nc3nc(Nc4cccc(S(N)(=O)=O)c4)ncc3N)cc2NC1=O [VII-39, 5-Amino-N2-(3-amionsulfonylphenyl)-N4-(2,2-dimethyl-3-oxo-4H-benz[1,4]oxazin-6-yl)-2,4-pyrimidinediamine]
IC50 (Primary human T-cells; [9]): 919 nM

IC50 [1, 4]: 28.9 nM
Compound: Cc1ccc(Nc2ncc(C)c(Nc3ccc4c(c3)N(C)C(=O)CS4)n2)cc1S(N)(=O)=O [VII-33, N2-(3-Aminosulphonyl-4-methylphenyl)-5-methyl-N4-(4-methyl-3-oxo-benzo[1,4]thiazin-6-yl)-2,4-pyrimidinediamine]
IC50 (Primary human T-cells; [5]): 18.4 nM

IC50 [1, 4]: 164 nM
Compound: C#CCOc1ccc(Nc2nc(Nc3ccc(C)c(S(N)(=O)=O)c3)ncc2F)cc1C [VI-58, N2-(3-Aminosulfonyl-4-methylphenyl)-5-fluoro-N4-[3-methyl-4-(prop-2-ynyloxy)phenyl]-2,4-pyrimidinediamine]
IC50 (Primary human T-cells; [5]): 724 nM

IC50 [1, 8]: 144 nM
Compound: Cc1ccc(Nc2ncc(F)c(Nc3ccc(OCC(F)(F)F)cc3)n2)cc1S(N)(=O)=O [VI-46, N2-(3-Aminosulfonyl-4-methylphenyl)-5-fluoro-N4-(4-trifluoromethylmethyleneoxyphenyl)-2,4-pyrimidinediamine]
IC50 (Primary human T-cells; [9]): 1260 nM

IC50 [1, 4]: 812 nM
Compound: NS(=O)(=O)c1cccc(Nc2ncc(F)c(Nc3cccc4ncccc34)n2)c1 [VII-68, N2-(3-Aminosulfonylphenyl)-5-fluoro-N4-(quinolin-5-yl)-2,4-pyrimidinediamine]
IC50 (Primary human T-cells; [5]): 1300 nM

IC50 [1, 6]: 443 nM
Compound: CCN(CC)CCNS(=O)(=O)c1ccc(Nc2ncc(F)c(Nc3ccc(Cn4ccnc4)cc3)n2)cc1 [III-84, N2-[4-(2-N,N-Diethylaminoethyl)aminosulfonylphenyl)-5-fluoro-N4-[4-(1-imidazolylmethyl)phenyl]-2,4-pyrimidinediamine]
IC50 (Primary human T-cells; [7]): 1900 nM

IC50 [1, 8]: 541 nM
Compound: CC1(C)Oc2cc(Nc3nc(Nc4cccc(S(N)(=O)=O)c4)ncc3F)cnc2NC1=O [VII-51, N2-(3-Aminosulfonylphenyl)-N4-[2,2-dimethyl-3-oxo-4H-5-pyrid[1,4]oxazin-7-yl]-5-fluoro-2,4-pyrimidinediamine]
IC50 (Primary human T-cells; [9]): 1790 nM

IC50 [1, 4]: 212 nM
Compound: NS(=O)(=O)c1ccc(Nc2ncc(F)c(Nc3ccc(CCCF)cc3)n2)cc1 [VI-82, N2-(4-Aminosulfonylphenyl)-5-fluoro-N4-[4-(3-fluoropropyl)phenyl]-2,4-pyrimidinediamine]
IC50 (Primary human T-cells; [5]): 1630 nM

IC50 [1, 4]: 49.8 nM
Compound: COc1ccc(Nc2nc(Nc3ccc(OC)c(S(N)(=O)=O)c3)ncc2F)cc1Cl [VI-29, N2-(3-Aminosulfonyl-4-methoxyphenyl)-N4-(3-chloro-4-methoxyphenyl)-5-fluoro-2,4-pyrimidinediamine]
IC50 (Primary human T-cells; [5]): 362 nM

IC50 [1, 4]: 502 nM
Compound: COc1ccc(Nc2nc(Nc3cccc(S(N)(=O)=O)c3)ncc2F)nc1N [VII-7, N2-(3-Aminosulfonylphenyl)-N4-(2-amino-3-methoxypyrid-6-yl)-5-fluoro-2,4-pyrimidinediamine]
IC50 (Primary human T-cells; [5]): 3920 nM
